Test results from patent US20110172296A1, “MODULATION OF TRANSFORMING GROWTH FACTOR-BETA 1 EXPRESSION” (priority 2010, published 2011).
Several values for one entry are separate records, joined by “and”; a condition that tells them apart may be missing. Identical values can stand only once. e = 2'-O-(2-methoxyethyl) (MOE); d = 2'-deoxy (DNA)

How the values were obtained:
BALB/c mice [1] = assay: Tolerability in BALB/c mice: plasma transaminases ALT and AST (Example 7); conditions: for aspartate transaminase levels: plasma
Experimental: (§1) These gapmer oligonucleotides were designed to target human TGF-beta1 and have varying degrees of mismatch with murine TGF-beta1 sequence, as shown in Table 1. Oligo ID Nos. 413982 and 414040 have greater than 3 mismatches to the murine TGF-beta1 sequence. Oligo ID No. 414035 has 2 mismatches to murine TGF-beta1. Oligo ID No. 414036 has no mismatches to murine TGF-beta1.
(§2) BALB/c mice were injected with 25 mg/kg or 50 mg/kg of Oligo ID Nos. 413982, 414035, 414036, or 414040 twice a week for 4 weeks. A control group of mice was injected with phosphate buffered saline (PBS) twice a week for 4 weeks. Plasma transaminase levels were evaluated bi-weekly.
(§3) To evaluate the impact of TGF-beta1 antisense oligonucleotides on the hepatic function of mice described above, plasma concentrations of transaminases were measured using an automated clinical chemistry analyzer (Hitachi Olympus AU400e, Melville, N.Y.).

human TGF-beta1 mRNA [2] = assay: Dose-dependent antisense inhibition of human TGF-beta1 in HuVEC cells, Lipofectamine 2000, 0.9375-30 nM (Example 3); format: cell-based; conditions: Lipofectamine 2000
Experimental: Cells were plated at a density of 5,000 cells per well and transfected using Lipofectamine™ 2000 reagent with 0.9375 nM, 1.875 nM, 3.75 nM, 7.5 nM, 15 nM, and 30 nM concentrations of antisense oligonucleotide for 4 hours, as specified in Table 3. After a recovery period of approximately 16 hours, RNA was isolated from the cells and TGF-beta1 mRNA levels were measured by quantitative real-time PCR. Human TGF-beta1 primer probe set RTS 2980 (forward sequence CTCTCCGACCTGCCACAGA, SEQ ID NO: 160; reverse sequence […], SEQ ID NO: 53; probe sequence CCCTATTCAAGACCACCCACCTTCTGGTX, SEQ ID NO: 161) was used to measure mRNA levels. TGF-beta1 mRNA levels were adjusted according to total RNA content, as measured by RIBOGREEN®. Results are presented as percent inhibition of TGF-beta1, relative to untreated control cells.

BALB/c mice [3] = conditions: mouse, in vivo
Experimental: as §1, §2, §3

human TGF-beta1 mRNA [4] = assay: Dose-dependent confirmation of antisense inhibition of human TGF-beta1 in HuVEC cells, electroporation (Example 6); format: cell-based
Experimental: The gapmers from Example 5 (see Table 5) were also tested at various doses in HuVEC cells using electroporation as the transfection reagent. Cells were plated at a density of 20,000 cells per well and transfected using electroporation with 0.15625 nM, 0.3125 nM, 0.625 nM, 1.25 nM, 2.5 nM, 5 nM, 10 nM, and 20 nM concentrations of antisense oligonucleotide for 4 hours, as specified in Table 6. After a recovery period of approximately 16 hours, RNA was isolated from the cells and TGF-beta1 mRNA levels were measured by quantitative real-time PCR. TGF-beta1 mRNA levels were adjusted according to total RNA content, as measured by RIBOGREEN®. Results are presented as percent inhibition of TGF-beta1, relative to untreated control cells.

human TGF-beta1 mRNA [5] = assay: Dose-dependent confirmation of antisense inhibition of human TGF-beta1 in HuVEC cells after large-scale synthesis, Lipofectamine 2000, 0.007-15 nM (Example 5); format: cell-based; conditions: for percent inhibition of TGF-beta1: Lipofectamine 2000
Experimental: Cells were plated at a density of 5,000 cells per well and transfected using Lipofectamine™ 2000 reagent with 0.007 nM, 0.021 nM, 0.062 nM, 0.185 nM, 0.556 nM, 1.667 nM, 5 nM, and 15 nM concentrations of antisense oligonucleotide for 4 hours, as specified in Table 5. After a recovery period of approximately 16 hours, RNA was isolated from the cells and TGF-beta1 mRNA levels were measured by quantitative real-time PCR. Human TGF-beta1 primer probe set RTS 2980 was used to measure mRNA levels. TGF-beta1 mRNA levels were adjusted according to total RNA content, as measured by RIBOGREEN®. Results are presented as percent inhibition of TGF-beta1, relative to untreated control cells.

human TGF-beta1 mRNA [6] = assay: Dose-dependent antisense inhibition of human TGF-beta1 in HuVEC cells, Lipofectamine 2000, 0.3292-80 nM, comparison with oligos of U.S. Pat. No. 6,436,909 (Example 4); format: cell-based
Experimental: The dose-dependent antisense inhibition potential of these gapmers was compared with that of Oligo IDs 104992 and 1138498 from U.S. Pat. No. 6,436,909. Cells were plated at a density of 5,000 cells per well and transfected using Lipofectamine™ 2000 reagent with 0.3292 nM, 0.9877 nM, 2.963 nM, 8.8889 nM, 26.6667 nM, and 80 nM concentrations of antisense oligonucleotide for 4 hours, as specified in Table 4. After a recovery period of approximately 16 hours, RNA was isolated from the cells and TGF-beta1 mRNA levels were measured by quantitative real-time PCR. Human TGF-beta1 primer probe set RTS 2980 was used to measure mRNA levels. TGF-beta1 mRNA levels were adjusted according to total RNA content, as measured by RIBOGREEN®. Results are presented as percent inhibition of TGF-beta1, relative to untreated control cells. […] All the antisense oligonucleotides in Table 4 target human TGF-beta1 mRNA (SEQ ID NO: 1).

human TGF-beta1 mRNA [7] = assay: Antisense inhibition of human TGF-beta1 mRNA in HuVEC cells, single 10 nM dose, Lipofectamine 2000 (Example 2); format: cell-based
How it was run: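 Percent inhibition relative to untreated controls, from qRT-PCR of mRNA corrected for total RNA (RIBOGREEN). Cells were exposed 4 h to 10 nM phosphorothioate 2-13-5 MOE gapmers with Lipofectamine 2000 at 5,000 cells/well. RNA was harvested after roughly 24 h recovery.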

[8] = system: Col1α2 mRNA expression in rat skin; assay: Col1α2 mRNA expression in rat model of skin fibrosis and wounding, intradermal treatment (Example 9); format: in vivo
Source text: Scar and fibrotic tissues are mainly composed of collagen, especially collagen1α2 (Col1α2). Therefore, the expression of Col1α2 can be used as a marker for the severity of scarring, especially in skin. We have evaluated the ability of a TGF-beta1 ASO to suppress the expression of Col1α2 in rat skin subsequent to full-thickness skin wounding, an injury that typically leads to a 4-6 fold induction in Col1α2 expression.
On Day 1 of the study, a 0.8 centimeter biopsy punch was used to create full-thickness wounds on the back of anesthetized adult hairless rats. Two biopsies were performed on each rat's back; one in the lower left quadrant, and one in the upper right quadrant. The wounds were left open, but dressed with a sterile occlusive bandage, which were left in place for 24 hours.
Biopsy sites were treated intradermally with PBS (vehicle) or a 3 mg dose of a rat specific TGF-beta1 antisense oligonucleotide (Oligo ID 433849; SEQ ID NO. 166) on Days 1, 5, 9, and 13 post-biopsy. Animals were sacrificed on Day 14 post-biopsy. […]
A subset of the excised skin from each initial biopsy site was retained and prepared for Col1α2 mRNA expression (by RT-PCR). […] On day 15, animals were euthanized, a sample of skin from the center of the wound was obtained with a 0.5 cm biopsy punch, and Col1α2 mRNA expression determined.

## 414035 (antisense GTCCTTAAATACAGCCCCCA; sugars from the 5' end e2 d13 e5, backbone and methylation of C not given here) [compound 414035]
BALB/c mice [1]; 25 mg/kg twice a week, Week 2
  alanine transaminase levels: 56 IU/L
  aspartate transaminase levels: 82 IU/L
BALB/c mice [1]; 25 mg/kg twice a week, Week 4
  alanine transaminase levels: 45 IU/L
  aspartate transaminase levels: 116 IU/L
BALB/c mice [1]; 50 mg/kg twice a week, Week 2
  alanine transaminase levels: 66 IU/L
  aspartate transaminase levels: 123 IU/L
BALB/c mice [1]; 50 mg/kg twice a week, Week 4
  alanine transaminase levels: 67 IU/L
  aspartate transaminase levels: 155 IU/L
BALB/c mice [1]; 25 or 50 mg/kg twice a week for four weeks
  increase in ALT/AST: < 3 fold
Human TGF-beta1 mRNA [2]; 0.9375 nM
  percent inhibition of TGF-beta1: 64%
Human TGF-beta1 mRNA [2]; 1.875 nM
  percent inhibition of TGF-beta1: 75%
Human TGF-beta1 mRNA [2]; 3.75 nM
  percent inhibition of TGF-beta1: 88%
Human TGF-beta1 mRNA [2]; 7.5 nM
  percent inhibition of TGF-beta1: 94%
Human TGF-beta1 mRNA [2]; 15 nM
  percent inhibition of TGF-beta1: 95%
Human TGF-beta1 mRNA [2]; 30 nM
  percent inhibition of TGF-beta1: 94%
BALB/c mice [3]
  tolerability compared to Oligo ID 105204: improved tolerability
Human TGF-beta1 mRNA [4]; 0.15625 nM oligonucleotide
  percent inhibition of TGF-beta1 mRNA relative to untreated control cells: 17%
Human TGF-beta1 mRNA [4]; 0.3125 nM oligonucleotide
  percent inhibition of TGF-beta1 mRNA relative to untreated control cells: 49%
Human TGF-beta1 mRNA [4]; 0.625 nM oligonucleotide
  percent inhibition of TGF-beta1 mRNA relative to untreated control cells: 63%
Human TGF-beta1 mRNA [4]; 1.25 nM oligonucleotide
  percent inhibition of TGF-beta1 mRNA relative to untreated control cells: 77%
Human TGF-beta1 mRNA [4]; 2.5 nM oligonucleotide
  percent inhibition of TGF-beta1 mRNA relative to untreated control cells: 89%
Human TGF-beta1 mRNA [4]; 5.00 nM oligonucleotide
  percent inhibition of TGF-beta1 mRNA relative to untreated control cells: 94%
Human TGF-beta1 mRNA [4]; 10.00 nM oligonucleotide
  percent inhibition of TGF-beta1 mRNA relative to untreated control cells: 94%
Human TGF-beta1 mRNA [4]; 20 nM oligonucleotide
  percent inhibition of TGF-beta1 mRNA relative to untreated control cells: 94%
Human TGF-beta1 mRNA [5]; 0.007 nM
  percent inhibition of TGF-beta1: 9%
Human TGF-beta1 mRNA [5]; 0.021 nM
  percent inhibition of TGF-beta1: 26%
Human TGF-beta1 mRNA [5]; 0.062 nM
  percent inhibition of TGF-beta1: 45%
Human TGF-beta1 mRNA [5]; 0.185 nM
  percent inhibition of TGF-beta1: 59%
Human TGF-beta1 mRNA [5]; 0.556 nM
  percent inhibition of TGF-beta1: 76%
Human TGF-beta1 mRNA [5]; 1.667 nM
  percent inhibition of TGF-beta1: 84%
Human TGF-beta1 mRNA [5]; 5 nM
  percent inhibition of TGF-beta1: 90%
Human TGF-beta1 mRNA [5]; 15 nM
  percent inhibition of TGF-beta1: 91%
Human TGF-beta1 mRNA [5]; Lipofectamine 2000, Example 5
  IC50: 0.13 nM
Human TGF-beta1 mRNA [6]; 0.3292 nM
  percent inhibition of TGF-beta1: 74%
Human TGF-beta1 mRNA [6]; 0.9877 nM
  percent inhibition of TGF-beta1: 84%
Human TGF-beta1 mRNA [6]; 2.963 nM
  percent inhibition of TGF-beta1: 92%
Human TGF-beta1 mRNA [6]; 8.8889 nM
  percent inhibition of TGF-beta1: 94%
Human TGF-beta1 mRNA [6]; 26.6667 nM
  percent inhibition of TGF-beta1: 93%
Human TGF-beta1 mRNA [6]; 80.0 nM
  percent inhibition of TGF-beta1: 93%
Human TGF-beta1 mRNA [7]; 10 nM oligonucleotide, HuVEC, relative to untreated control cells, gapmers targeted to SEQ ID NO: 1
  % inhibition: 89%
Human TGF-beta1 mRNA [7]; threshold lists of Oligo IDs, 10 nM
  inhibition of a TGF-beta1 mRNA: 60% and 65% and 70% and 75% and 80% and 85%

## 433849 (antisense GTCCTTAAATACAGCCCCGG; listed as DNA, chemistry not given here) [compound 433849]
[8]; 3 mg intradermally on Days 1, 5, 9, 13 post-biopsy, day 14 after skin wounding
  expression of Col1α2 in rat skin: significantly reduced
[8]; hairless rats, full-thickness skin wound, 3 mg intradermal on Days 1, 5, 9, 13, day 14 after skin wounding
  % Col1α2 mRNA compared to the unwounded control: 83%
